Literature values as cited in patent publication US7329673B2, “Acylated spiropiperidine derivatives as melanocortin-4 receptor agonists” (Merck & Co., Inc., priority 2003, dated 2008).

Tests used:
[1] = in vivo, po
[2] = test system: males with psychogenic erectile dysfunction
[3] = test system: men with erectile dysfunction; conditions: for duration of effect / onset of action: after an oral dose; for share of men/patients in whom effective (adequate response): oral

Molecule | absorption into the systemic circulation [1] | duration of action ([2]; in vivo) | time to onset of erection ([2]; in vivo) | response rate ([2]; injected intramuscularly or subcutaneously) | duration of effect [3] | onset of action [3] | share of men/patients in whom effective (adequate response) [3]
Ac-Nle-c[Asp-His-DPhe-Arg-Trp-Lys]-NH2 [MT-II] | not absorbed into the systemic circulation | approximately 2.5 hours | 10 to 20 min | 75% | – | – | –
CCCc1nn(C)c2c(=O)[nH]c(-c3cc(S(=O)(=O)N4CCN(C)CC4)ccc3OCC)nc12 [sildenafil] | – | – | – | – | about 4 hours | 30 to 60 min | about 70%
Cc1ccc(N(CC2=NCCN2)c2cccc(O)c2)cc1 [phentolamine] | – | – | – | – | 2 h | 5 to 30 min | 35-40%
